Source: patent publication US8507562B2, “Synthesis of (1)-beta-elemene, (-)-beta-elemenal, (-)-beta-elemenol, (-)-beta-elemene fluoride and their analogues, intermediates, and composition and uses thereof” (HYWE Pharmaceuticals, Inc., priority 2004, dated 2013)
Converted amounts (≈) assume the structure as drawn. Where two headings read alike, the source gives them in different places. Values belong to the compound of their own block, whether it stands above or below them.

Legend:
[1] = test system: Colon Cancer Cells HCT-116; experiment: MTS cell viability assay; assay type: cell-based, human; details: combinations with Elemene 160 μg/ml, n = 8
[2] = test system: Colon Cancer Cells HCT-15; experiment: MTS cell viability assay; details: combinations with Elemene 160 μg/ml, n = 8
Description: (§3) Cells were maintained at 37° C. in a humidified atmosphere including 5% CO2. […] Drugs were dissolved in 100% DMSO and then diluted in medium for experiments.

[3] = test system: Colon Cancer Cells Colo 205; experiment: MTS cell viability assay; details: Colo 205, drug alone
Description: as §3

human glioma cells = experiment: MTT assay, elemene analogs; assay type: cell-based; details: for IC50: Homo sapiens, Glioma cell
Description: (§4) The MTT assay is a commonly used method in evaluation of cell survival, based on the ability of viable cells to convert MTT, a soluble tetrazolium salt [3-(4,5-dimethylthuazole-2-yl)-2,5 diphenyl tetrazolium bromide], into an insoluble formazan precipitate, which is quantitated by spectrophotometry following solubilization in dimethyl sulfoxide (DMSO).
(§5) The cells were then solubilized in 125 μl of DMSO and absorbance readings were taken using a 96-well Opsys MRI Microplate Reader (ThermoLabsystems; Chantilly, Va.). The amount of MTT dye reduction was calculated based on the difference between absorbance at 570 nm and at 630 nm. Cell viability in treated cells was expressed as the amount of dye reduction relative to that of untreated control cells. The wells which contained only medium and 10 μl of MTT were used as blanks for the plate reader. Three sets of experiments were performed in 8-12 wells for each treatment.

[4] = test system: human glioma G422 (xenograph in brain); experiment: Tumor xenographed in mice brain, survival; assay type: in vivo; details: 5 mg/kg/time ip × 7 qd
Description: (§1) Mice model with tumor xenographed in mice brain: Glioma cell line G-422 or SHG44 (log phase) were diluted to 2×10^7/ml in cell culture hood (no bacteria environment). Each mouse was injected with 0.05 ml of tumor cell in its brain. […] The survival time of these mice was recorded in the next 30 days. The life extension was calculated using the following formula: Life Extension Rate=[( […])/Average survival days of control group[×100 Results: […]

[5] = test system: human glioma SHG44 (xenograph in brain); experiment: Tumor xenographed in mice brain, survival; assay type: in vivo, nude mice; details: 5 mg/kg/time ip × 7 qd
Description: as §1

[6] = test system: human glioma G-422 (xenograph under skin); experiment: Xenograph under skin, injection directly into tumor; assay type: in vivo, mice; details: 5 mg ip × 10 qd
From the text: (§2) The mice were killed after 3 weeks.

[7] = test system: human glioma SHG-44G (xenograph under skin); experiment: as above; assay type: in vivo, nude mice; details: listed as printed Pos. Cont. VM-26: 60 mg/kg it × 10 qd
From the text: as §2
Nude mice grew on the cengliu rack.

H-460 lung cancer = experiment: MTT survival assay; assay type: cell-based, human; details: 2 × 10^4 cells/ml
Description: as §4, §5
(§6) In brief, carcinoma cells treated with test articles alone, in 96-well tissue culture dishes were incubated with MTT (2 μg/ml) for 4 h. The cells were then solubilized in 125 μl of DMSO and absorbance readings were taken using a 96-well Opsys MRI Microplate Reader (ThermoLabsystems; Chantilly, Va.). The amount of MTT dye reduction was calculated based on the difference between absorbance at 570 nm and at 630 nm. Cell viability in treated cells was expressed as the amount of dye reduction relative to that of untreated control cells. The wells that contained only medium and 10 μl of MTT were used as blanks for the plate reader.
(§7) The cells were then solubilized in 125 μl of DMSO and absorbance readings were taken using a 96-well Opsys MRI Microplate Reader (ThermoLabsystems; Chantilly, Va.). The amount of MTT dye reduction was calculated based on the difference between absorbance at 570 nm and at 630 nm. Cell viability in treated cells was expressed as the amount of dye reduction relative to that of untreated control cells. The wells which contained only medium and 10 μI of MTT were used as blanks for the plate reader. Three sets of experiments were performed in 8-12 wells for each treatment.

A549 lung cancer = experiment: MTT survival assay; details: 2 × 10^4 cells/ml
Description: as §4, §6

A-172 brain tumor = experiment: MTT survival assay; assay type: cell-based, human; details: Homo sapiens, A 172, read-out: IC50
Description: as §4, §5, §7

U-87 brain tumor = experiment: MTT survival assay; assay type: cell-based, human; details: Homo sapiens, read-out: IC50
Description: as §4, §5, §7

STTG1 brain tumor = experiment: MTT survival assay; assay type: cell-based, human; details: Homo sapiens, read-out: IC50
Description: as §4, §5

Compound: O=C1[O][Pt]2([NH][C@@H]3CCCC[C@H]3[NH]2)[O]C1=O [Oxaliplatin]
IC50 ([1]; HCT-116, 4 hr/24 hr × 2): 106 ± 15.7 mg/L | IC50 ([1]; HCT-116, 4 hr/24 hr × 3): 65.7 ± 7.02 mg/L | IC50 ([1]; HCT-116, 4 hr/24 hr): 148 ± 13.7 mg/L | IC50 ([1]; HCT-116, 4 hr): 373 ± 69.6 mg/L | IC50 ([1]; HCT-116, 8 hr): 92.2 ± 15.7 mg/L | IC50 ([1]; HCT-116, 12 hr): 74.4 ± 6.28 mg/L | IC50 ([1]; HCT-116, 24 hr): 68.9 ± 7.92 mg/L | IC50 ([1]; HCT-116, 48 hr): 64.5 ± 7.89 mg/L | IC50 ([1]; HCT-116, 72 hr): 57.2 ± 10.5 mg/L | IC50 ([2]; HCT-15, 4 hr/24 hr × 2): 16.4 ± 4.64 mg/L | IC50 ([2]; HCT-15, 4 hr/24 hr × 3): 11.8 ± 3.69 mg/L | IC50 ([2]; HCT-15, 4 hr/24 hr): 22.0 ± 7.66 mg/L | IC50 ([2]; HCT-15, 4 hr): 28.4 ± 6.80 mg/L | IC50 ([2]; HCT-15, 8 hr): 25.7 ± 5.61 mg/L | IC50 ([2]; HCT-15, 12 hr): 19.3 ± 3.21 mg/L | IC50 ([2]; HCT-15, 48 hr): 14.5 ± 2.66 mg/L | IC50 ([2]; HCT-15, 72 hr): 14.9 ± 3.33 mg/L | IC50 ([3]; Time 4 hr, n = 8): 166 ± 7.51 mg/L | IC50 ([3]; Time 4 hr/24 hr × 2, n = 8): 21.8 ± 1.06 mg/L | IC50 ([3]; Time 4 hr/24 hr × 3, n = 8): 9.90 ± 1.01 mg/L | IC50 ([3]; Time 4 hr/24 hr, n = 8): 29.5 ± 7.05 mg/L | IC50 ([3]; Time 8 hr, n = 8): 124 ± 13.1 mg/L | IC50 ([3]; Time 12 hr, n = 8): 69.7 ± 12.7 mg/L | IC50 ([3]; Time 24 hr, n = 8): 25.2 ± 7.85 mg/L | IC50 ([3]; Time 48 hr, n = 8): 20.4 ± 2.14 mg/L | IC50 ([3]; Time 72 hr, n = 8): 13.4 ± 2.42 mg/L

IC50 (human glioma cells; 24 hr): > 200 mg/L | IC50 (human glioma cells; 48 hr): > 200 mg/L | IC50 (human glioma cells; 72 hr): > 200 mg/L
Compound: C=C(C)[C@@H]1CC=C(C)C(=O)C1 [Lr-10, (R)-5-Isopropenyl-2-methyl-cyclohex-2-enone]

Compound: COc1cc([C@@H]2c3cc4c(cc3[C@@H](O[C@@H]3O[C@@H]5CO[C@@H](c6cccs6)O[C@H]5[C@H](O)[C@H]3O)[C@H]3COC(=O)[C@H]23)OCO4)cc(OC)c1O [VM26, reference compound]
Average Life Span (day) X± SD [4]: 21.5 ± 3.4 days | Average Life Span (day) X± SD [5]: 30.8 ± 3.7 days | Survival time as % of control (T/C) ([5]; compared to control): 196.75% | Inhibition Rate % [6]: 85.78% | Tumor Weight X ± SD ([6]; in g (unit assumed)): 0.32 ± 0.12 | Inhibition Rate % [7]: 61.08% | Tumor Weight X ± SD ([7]; in g (unit assumed)): 0.72 ± 0.12

Compound: C=C[C@]1(C)CC[C@@H](C(=C)C=O)C[C@H]1C(=C)C [(−)-beta-elemenal, (−)-Beta-elemenal]
IC50 (H-460 lung cancer; H460, 24 h): 27.6 mg/L (≈ 126 µM) | IC50 (H-460 lung cancer; H460, 48 h): 25.5 mg/L (≈ 117 µM) | IC50 (H-460 lung cancer; H460, 72 h): 11.0 mg/L (≈ 50.4 µM) | IC50 (A549 lung cancer; A549, 24 h): 45.6 mg/L (≈ 209 µM) | IC50 (A549 lung cancer; A549, 48 h): 35.0 mg/L (≈ 160 µM) | IC50 (A549 lung cancer; A549, 72 h): 35.0 mg/L (≈ 160 µM)

IC50 in human glioma cells (human glioma cells; 24 hr): >200 mg/L | IC50 in human glioma cells (human glioma cells; 48 hr): >200 mg/L | IC50 in human glioma cells (human glioma cells; 72 hr): >200 mg/L
Compound: (S)-1,5-Diisopropenyl-2-methyl-cyclohex-2-enol, and (R)-1,5-Diisopropenyl-2-methyl-cyclohex-2-enol [Lr-4]

Compound: (−)-Beta-elemene Fluoride
IC50 (H-460 lung cancer; H460, 24 h): 71.3 mg/L | IC50 (H-460 lung cancer; H460, 48 h): 62.5 mg/L | IC50 (H-460 lung cancer; H460, 72 h): 68.6 mg/L | IC50 (A549 lung cancer; A549, 24 h): 83.0 mg/L | IC50 (A549 lung cancer; A549, 48 h): 64.5 mg/L | IC50 (A549 lung cancer; A549, 72 h): 71.4 mg/L

Compound: C=C[C@]1(C)CC[C@@H]([C@@](C)(O)CO)C[C@H]1C(=C)C (single isomer, unassigned) [Lr-1]
IC50 (A-172 brain tumor; A172, 24 h): 106 mg/L (≈ 445 µM) | IC50 (A-172 brain tumor; A172, 48 h): 94 mg/L (≈ 394 µM) | IC50 (A-172 brain tumor; A172, 72 h): 90 mg/L (≈ 378 µM) | IC50 (U-87 brain tumor; U87, 24 h): 98 mg/L (≈ 411 µM) | IC50 (U-87 brain tumor; U87, 48 h): 94 mg/L (≈ 394 µM) | IC50 (U-87 brain tumor; U87, 72 h): 89 mg/L (≈ 373 µM) | IC50 (STTG1 brain tumor; STTG1, 24 h): 108 mg/L (≈ 453 µM) | IC50 (STTG1 brain tumor; STTG1, 48 h): 98 mg/L (≈ 411 µM) | IC50 (STTG1 brain tumor; STTG1, 72 h): 94 mg/L (≈ 394 µM)

IC50 (human glioma cells; 24 hr): > 200 mg/L | IC50 (human glioma cells; 48 hr): > 200 mg/L | IC50 (human glioma cells; 72 hr): > 200 mg/L
Compound: C=C(C)C1=C(C)C(=O)C[C@@H](C(=C)C)C1 [Lr-6, (S)-3,5-Diisopropenyl-2-methyl-cyclohex-2-enone]
